Data published in patent publication US8329861B2, “Protein KTPAF50” (Two To Biotech Ltd., priority 2007, dated 2012).

Legend:
[1] = tested on: U937 acute myeloid leukemia cells; assay: Viable cell detection with Resazurin, U937 cells; type: cell-based; conditions: incubated one day, FIG. 4
Description: (§1) U937 acute myeloid leukemia cells and PC3 prostate cancer cells were each grown in 10% FCS+RPMI medium and quadruplicates were inoculated into a 96 well plate, 20,000 cells/well.
(§2) KTPAF50 was incubated with the cells for one day, and viable cells were detected using Resazurin (R&D System) and a spectrophotometer.
In order to determine whether the entire KTPAF50 peptide is required for activity, the experiment described in Example III above, using U937 cells, was repeated with the complete KTPAF50 peptide and fragments thereof.

[2] = tested on: PC3 prostate cancer cells; assay: Viable cell detection with Resazurin, PC3 cells; type: cell-based; conditions: incubated one day, FIG. 4
Description: as §1, §2

[3] = tested on: human peripheral white blood cells (pWBC); assay: Cytokine secretion from PHA-cultured human peripheral white blood cells treated with KTPAF50 (ELISA); type: cell-based; conditions: pWBC in PHA containing medium, treated for 3 days
Description: In order to determine the potential effect of KTPAF50 on various diseases, KTPAF50 was incubated with human peripheral white blood cells (pWBC), and the amounts of a panel of cytokines were measured.
Total human white blood cells were cultured in PHA containing medium (Biological Industries INC—catalogue number—01-201-1) (2 million cells/well in 2 ml medium). The control cells were not treated.
At day 3 medium was harvested and subjected to ELISA analysis, using e-Bioscience kits for human IL-17 (catalogue number: 88-7176), human INF-γ (catalogue number: 88-7316) and human TNF-α (catalogue number: 88-7346. The results are summarized in FIGS. 1, 2 and 3.

U937 cells = assay: U937 tumor growth in athymic nude mice; type: in vivo; conditions: nude mice inoculated s.c. with 15×10^6 U937 cells, 25 ug/mouse injected from day 9, versus saline control; FIG. 6
Description: 14 athymic nude female 8-9 week-old mice were purchased from Harlan Biotech, Israel. The mice were inoculated s.c. with 15×10^6 U937 cells. Tumors began to grow, and at day 9 the mice were divided into 2 groups: • A control group which was injected with saline. • A treated group which was injected with KTPAF50 (25 ug/mouse)
At day 20, 4 mice from the control group were sacrificed due to ethical reasons because they had huge tumors.

Substance: KTPAF50: KTPAF50 peptide devoid of the signal sequence, 50 amino acids: LRRREQAERGSRRCAIAGEERAMLSPSPLPETPFSPEKGAAFSPIYPRRK; chemically synthesized by Anaspec (listed as Homo sapiens)
- viable cells (normalized to the control amount) [1]: significant decrease in viable cells
- viable cells (normalized to the control amount) [2]: significant decrease in viable cells
- secretion of IL-17 ([3]; FIG. 1): stimulated the pWBC to secrete all three cytokines measured
- secretion of INF-γ ([3]; FIG. 2): stimulated the pWBC to secrete all three cytokines measured
- secretion of TNF-α ([3]; FIG. 3): stimulated the pWBC to secrete all three cytokines measured
- U937 tumor volume / tumor growth (U937 cells): totally prevented tumor growth
